Measurements reported in ChEMBL document CHEMBL3885881, “DrugMatrix”.

Species on record: Rattus norvegicus
Assay: DrugMatrix - Regimen: Daily Repeat
Type: toxicity, organism-based, Sprague-Dawley
Parameters: regimen Daily Repeat, gender Male, age 6-8 weeks
Settings: in vivo, po, 0 mg/kg, route oral GAVAGE, dose level Control, […]; for ABSOLUTE BASOPHIL / ABSOLUTE EOSINOPHIL / ABSOLUTE LYMPHOCYTE / ABSOLUTE MONOCYTE / BASOPHIL / EOSINOPHIL / ERYTHROCYTE COUNT / HEMATOCRIT / HEMOGLOBIN / LEUKOCYTE COUNT / LYMPHOCYTE / MEAN CORPUSCULAR HEMOGLOBIN / MEAN CORPUSCULAR HEMOGLOBIN CONCENTRATION / MEAN CORPUSCULAR VOLUME / MONOCYTE / NEUTROPHIL / PLATELET COUNT: tissue Blood
[1] = 72 h, tissue Plasma, time 3 day
[2] = 120 h, tissue Plasma, time 5 day

How did the ABSOLUTE BASOPHIL (72 h, time 3 day) turn out when `Clc1ccc(Cl)cc1` [1,4-DICHLOROBENZENE] was run?
The ABSOLUTE BASOPHIL was 50 cells/µL.

And the ABSOLUTE EOSINOPHIL (72 h, time 3 day)?
The ABSOLUTE EOSINOPHIL was 43.3 cells/µL.

What about the ABSOLUTE LYMPHOCYTE (72 h, time 3 day) of the same compound?
Its ABSOLUTE LYMPHOCYTE is 9670 cells/µL.

And the ABSOLUTE MONOCYTE (72 h, time 3 day)?
The ABSOLUTE MONOCYTE was 210 cells/µL.

And the BASOPHIL (72 h, time 3 day)?
The BASOPHIL was 0.4%.

What about the EOSINOPHIL (72 h, time 3 day) of the same compound?
The EOSINOPHIL was 0.37%.

And the “ERYTHROCYTE COUNT” value (72 h, time 3 day)?
Its value is 6.82 x10E6/uL.

What about the HEMATOCRIT (72 h, time 3 day) of the same compound?
The HEMATOCRIT was 46.77%.

And the HEMOGLOBIN (72 h, time 3 day)?
The HEMOGLOBIN was 14.53 G/DL.

And the “LEUKOCYTE COUNT” value (72 h, time 3 day)?
Its value is 11.77 x10E3/uL.

And the LYMPHOCYTE (72 h, time 3 day)?
The LYMPHOCYTE was 82.1%.

What about the “MEAN CORPUSCULAR HEMOGLOBIN” value (72 h, time 3 day) of the same compound?
The value was 21.33 pg.

What about the “MEAN CORPUSCULAR HEMOGLOBIN CONCENTRATION” value (72 h, time 3 day) of the same compound?
Its value is 31.13 G/DL.

What about the “MEAN CORPUSCULAR VOLUME” value (72 h, time 3 day) of the same compound?
Its value is 68.57 fL.

What about the MONOCYTE (72 h, time 3 day) of the same compound?
Its MONOCYTE is 1.8%.

What about the NEUTROPHIL (72 h, time 3 day) of the same compound?
The NEUTROPHIL was 14.83%.

And the “PLATELET COUNT” value (72 h, time 3 day)?
Its value is 1303.33 x10E3/uL.

What about the “ALANINE AMINOTRANSFERASE” value [1] of the same compound?
The value was 46.67 u/L.

And the ALBUMIN [1]?
Its ALBUMIN is 4.17 G/DL.

And the “ALKALINE PHOSPHATASE” value [1]?
Its value is 530 u/L.

What about the “ASPARTATE AMINOTRANSFERASE” value [1] of the same compound?
The value was 81.33 u/L.

What about the “BLOOD UREA NITROGEN” value [1] of the same compound?
Its value is 17.67 mg/dL.

And the “CARBON DIOXIDE” value [1]?
Its value is 41.67 mmol/L.

And the CHLORIDE [1]?
Its CHLORIDE is 102 MEQ/L.

What about the CHOLESTEROL [1] of the same compound?
Its CHOLESTEROL is 70.33 mg/dL.

What about the “CREATINE PHOSPHOKINASE” value [1] of the same compound?
Its value is 372.67 u/L.

What about the CREATININE [1] of the same compound?
The CREATININE was 0.5 mg/dL.

And the GLUCOSE [1]?
Its GLUCOSE is 184 mg/dL.

What about the LIPASE [1] of the same compound?
Its LIPASE is 13.33 u/L.

What about the PHOSPHORUS [1] of the same compound?
The PHOSPHORUS was 10.2 mg/dL.

And the POTASSIUM [1]?
The POTASSIUM was 6.13 MEQ/L.

What about the SODIUM [1] of the same compound?
The SODIUM was 145 MEQ/L.

What about the “TOTAL BILIRUBIN” value [1] of the same compound?
Its value is 0.43 mg/dL.

What about the “TOTAL PROTEIN” value [1] of the same compound?
The value was 6.7 G/DL.

And the “URIC ACID” value [1]?
Its value is 0.83 mg/dL.

What about the ABSOLUTE BASOPHIL (120 h, time 5 day) of the same compound?
Its ABSOLUTE BASOPHIL is 33.3 cells/µL.

And the ABSOLUTE EOSINOPHIL (120 h, time 5 day)?
Its ABSOLUTE EOSINOPHIL is 56.7 cells/µL.

And the ABSOLUTE LYMPHOCYTE (120 h, time 5 day)?
Its ABSOLUTE LYMPHOCYTE is 9220 cells/µL.

And the ABSOLUTE MONOCYTE (120 h, time 5 day)?
Its ABSOLUTE MONOCYTE is 230 cells/µL.

What about the BASOPHIL (120 h, time 5 day) of the same compound?
The BASOPHIL was 0.3%.

And the EOSINOPHIL (120 h, time 5 day)?
The EOSINOPHIL was 0.5%.

What about the “ERYTHROCYTE COUNT” value (120 h, time 5 day) of the same compound?
The value was 6.62 x10E6/uL.

And the HEMATOCRIT (120 h, time 5 day)?
Its HEMATOCRIT is 46.43%.

What about the HEMOGLOBIN (120 h, time 5 day) of the same compound?
The HEMOGLOBIN was 14.3 G/DL.

What about the “LEUKOCYTE COUNT” value (120 h, time 5 day) of the same compound?
Its value is 10.96 x10E3/uL.

And the LYMPHOCYTE (120 h, time 5 day)?
Its LYMPHOCYTE is 83.83%.

What about the “MEAN CORPUSCULAR HEMOGLOBIN” value (120 h, time 5 day) of the same compound?
Its value is 21.57 pg.

And the “MEAN CORPUSCULAR HEMOGLOBIN CONCENTRATION” value (120 h, time 5 day)?
Its value is 30.77 G/DL.

And the “MEAN CORPUSCULAR VOLUME” value (120 h, time 5 day)?
Its value is 70.13 fL.

And the MONOCYTE (120 h, time 5 day)?
The MONOCYTE was 2.1%.

What about the NEUTROPHIL (120 h, time 5 day) of the same compound?
Its NEUTROPHIL is 12.53%.

What about the “PLATELET COUNT” value (120 h, time 5 day) of the same compound?
The value was 1056.67 x10E3/uL.

And the “ALANINE AMINOTRANSFERASE” value [2]?
The value was 41.33 u/L.

And the ALBUMIN [2]?
Its ALBUMIN is 4.07 G/DL.

And the “ALKALINE PHOSPHATASE” value [2]?
The value was 603.33 u/L.

And the “ASPARTATE AMINOTRANSFERASE” value [2]?
Its value is 80 u/L.

And the “BLOOD UREA NITROGEN” value [2]?
Its value is 14.67 mg/dL.

What about the “CARBON DIOXIDE” value [2] of the same compound?
Its value is 43 mmol/L.

And the CHLORIDE [2]?
Its CHLORIDE is 104 MEQ/L.

What about the CHOLESTEROL [2] of the same compound?
The CHOLESTEROL was 88.33 mg/dL.

And the “CREATINE PHOSPHOKINASE” value [2]?
The value was 391.67 u/L.

What about the CREATININE [2] of the same compound?
Its CREATININE is 0.47 mg/dL.

What about the GLUCOSE [2] of the same compound?
Its GLUCOSE is 156 mg/dL.

And the LIPASE [2]?
Its LIPASE is 10.67 u/L.

And the PHOSPHORUS [2]?
The PHOSPHORUS was 9.03 mg/dL.

What about the POTASSIUM [2] of the same compound?
Its POTASSIUM is 6.1 MEQ/L.

And the SODIUM [2]?
The SODIUM was 145.67 MEQ/L.

And the “TOTAL BILIRUBIN” value [2]?
The value was 0.37 mg/dL.

And the “TOTAL PROTEIN” value [2]?
Its value is 6.53 G/DL.

What about the “URIC ACID” value [2] of the same compound?
The value was 0.5 mg/dL.

And the ABSOLUTE BASOPHIL (time 14 day)?
The ABSOLUTE BASOPHIL was 73.3 cells/µL.

And the ABSOLUTE EOSINOPHIL (time 14 day)?
The ABSOLUTE EOSINOPHIL was 60 cells/µL.

What about the ABSOLUTE LYMPHOCYTE (time 14 day) of the same compound?
The ABSOLUTE LYMPHOCYTE was 12200 cells/µL.

And the ABSOLUTE MONOCYTE (time 14 day)?
Its ABSOLUTE MONOCYTE is 250 cells/µL.

What about the BASOPHIL (time 14 day) of the same compound?
Its BASOPHIL is 0.5%.

And the EOSINOPHIL (time 14 day)?
The EOSINOPHIL was 0.37%.

And the “ERYTHROCYTE COUNT” value (time 14 day)?
The value was 7.33 x10E6/uL.

And the HEMATOCRIT (time 14 day)?
Its HEMATOCRIT is 44.3%.

What about the HEMOGLOBIN (time 14 day) of the same compound?
The HEMOGLOBIN was 14.77 G/DL.

And the “LEUKOCYTE COUNT” value (time 14 day)?
The value was 14.86 x10E3/uL.

And the LYMPHOCYTE (time 14 day)?
Its LYMPHOCYTE is 81.87%.

And the “MEAN CORPUSCULAR HEMOGLOBIN” value (time 14 day)?
The value was 20.2 pg.

What about the “MEAN CORPUSCULAR HEMOGLOBIN CONCENTRATION” value (time 14 day) of the same compound?
Its value is 33.33 G/DL.

What about the “MEAN CORPUSCULAR VOLUME” value (time 14 day) of the same compound?
The value was 60.57 fL.

What about the MONOCYTE (time 14 day) of the same compound?
Its MONOCYTE is 1.63%.

What about the NEUTROPHIL (time 14 day) of the same compound?
The NEUTROPHIL was 14.93%.

What about the “PLATELET COUNT” value (time 14 day) of the same compound?
Its value is 1101.67 x10E3/uL.

What about the “ALANINE AMINOTRANSFERASE” value (tissue Plasma, time 14 day) of the same compound?
The value was 31.67 u/L.

And the ALBUMIN (tissue Plasma, time 14 day)?
Its ALBUMIN is 3.83 G/DL.

What about the “ALKALINE PHOSPHATASE” value (tissue Plasma, time 14 day) of the same compound?
The value was 430.67 u/L.

What about the “ASPARTATE AMINOTRANSFERASE” value (tissue Plasma, time 14 day) of the same compound?
The value was 87 u/L.

And the “BLOOD UREA NITROGEN” value (tissue Plasma, time 14 day)?
The value was 14.33 mg/dL.

And the “CARBON DIOXIDE” value (tissue Plasma, time 14 day)?
Its value is 39 mmol/L.

What about the CHLORIDE (tissue Plasma, time 14 day) of the same compound?
The CHLORIDE was 104 MEQ/L.

What about the CHOLESTEROL (tissue Plasma, time 14 day) of the same compound?
The CHOLESTEROL was 66 mg/dL.

What about the “CREATINE PHOSPHOKINASE” value (tissue Plasma, time 14 day) of the same compound?
Its value is 441.67 u/L.

What about the CREATININE (tissue Plasma, time 14 day) of the same compound?
Its CREATININE is 0.7 mg/dL.

And the GLUCOSE (tissue Plasma, time 14 day)?
Its GLUCOSE is 125.67 mg/dL.

What about the “LACTATE DEHYDROGENASE” value (tissue Plasma, time 14 day) of the same compound?
The value was 397.67 u/L.

And the LIPASE (tissue Plasma, time 14 day)?
Its LIPASE is 12.33 u/L.

What about the PHOSPHORUS (tissue Plasma, time 14 day) of the same compound?
The PHOSPHORUS was 9.87 mg/dL.

What about the POTASSIUM (tissue Plasma, time 14 day) of the same compound?
Its POTASSIUM is 5.93 MEQ/L.

And the SODIUM (tissue Plasma, time 14 day)?
The SODIUM was 145 MEQ/L.

And the “TOTAL BILIRUBIN” value (tissue Plasma, time 14 day)?
Its value is 0.37 mg/dL.

What about the “TOTAL PROTEIN” value (tissue Plasma, time 14 day) of the same compound?
Its value is 6.27 G/DL.

And the “URIC ACID” value (tissue Plasma, time 14 day)?
The value was 0.67 mg/dL.
